From patent US6960343B2, “Toll/interleukin-1 receptor adapter protein (TIRAP)” (Yale University School of Medicine, priority 2001, dated 2005)

Columns and labels:
[1] = test system: NF-κB; assay: NF-κB-dependent luciferase reporter assay in RAW κB macrophage cell line; type: cell-based; details: RAW κB cells
Protocol: (§1) FIG. 5, comprising FIGS. 5A through 5D, is a series of blots depicting inhibition of LPS- but not CpG-induced NF-κB activation, PKR phosphorylation, and JNK phosphorylation by TIRAP. (A) TIRAP peptide, but not a reverse sequence peptide, inhibited LPS-induced NF-κB activation. RAW κB cells pretreated for 1 h with either the TIRAP or control peptide were stimulated with LPS (10 ng/ml) for 5 h. Samples were stimulated in duplicate. (B) Pretreatment of RAW cells with TIRAP peptide blocks LPS-induced IκB-α degradation. RAW cells pretreated with the TIRAP peptide as indicated were either left unstimulated or stimulated with LPS (10 ng/ml) for the indicated time periods. Lysates (30 μg/sample) were resolved by SDS-PAGE followed by immunoblotting with an anti-IκB-α antibody to assess IκB-α degradation. (C) TIRAP peptide inhibited LPS- but not CpG-induced NF-κB activity. RAW κB cells pretreated with the TIRAP peptide as indicated were stimulated with either LPS or CpG and harvested for reporter assay. (D) TIRAP peptide inhibited PKR and JNK phosphorylation induced by LPS but not CpG. RAW cells either untreated or pretreated with 40 μM of the TIRAP peptide were stimulated with either LPS or CpG as indicated. Lysates (30 μg/sample) were analyzed by SDS-PAGE followed by immunoblotting with antibodies that specifically recognize phosphorylated PKR or phosphorylated JNK. […]

[2] = test system: IκB-α; assay: IκB-α degradation in RAW cells, immunoblot; type: cell-based
Protocol: as §1

[3] = test system: PKR; assay: PKR phosphorylation in RAW cells, immunoblot; type: cell-based; details: 40 μM peptide
Protocol: (§2) FIG. 5, comprising FIGS. 5A through 5D, is a series of blots depicting inhibition of LPS- but not CpG-induced NF-κB activation, PKR phosphorylation, and JNK phosphorylation by TIRAP. (A) TIRAP peptide, but not a reverse sequence peptide, inhibited LPS-induced NF-κB activation. RAW κB cells pretreated for 1 h with either the TIRAP or control peptide were stimulated with LPS (10 ng/ml) for 5 h. Samples were stimulated in duplicate. (B) Pretreatment of RAW cells with TIRAP peptide blocks LPS-induced IκB-α degradation. RAW cells pretreated with the TIRAP peptide as indicated were either left unstimulated or stimulated with LPS (10 ng/ml) for the indicated time periods. […] Lysates (30 μg/sample) were analyzed by SDS-PAGE followed by immunoblotting with antibodies that specifically recognize phosphorylated PKR or phosphorylated JNK.
(§3) To determine whether a TIRAP mutant peptide inhibits PKR and JNK phosphorylation induced by LPS or CpG, RAW cells either untreated or pretreated with 40 μM of the TIRAP peptide were either left unstimulated or stimulated with either LPS (10 ng/ml) or CpG (10 μM) for the indicated time periods before harvest and lysis. Lysates (30 μg/sample) were analyzed by SDS-PAGE followed by immunoblotting with antibodies that specifically recognize phosphorylated PKR and JNK.

[4] = test system: JNK; assay: JNK phosphorylation in RAW cells, immunoblot; type: cell-based; details: 40 μM peptide
Protocol: as §2, §3

[5] = test system: dendritic cells (DCs); assay: Dendritic cell maturation, flow cytometry of costimulatory molecules B7.1 and B7.2; type: cell-based, mice; details: peptide 10 μM
Protocol: (§4) (A) Wild-type and MyD88^−/− dendritic cells (DCs) were induced with LPS or CpG and analyzed for expression of the costimulatory molecules B7.1 and […] flow cytometry. (B) Production of the cytokines, IL-12 and IL-6, was measured in cells that were untreated (none) or treated with LPS or CpG in the presence or absence of TIRAP peptide. (C) T cell proliferation was measured in wild-type DCs that were untreated (none), treated with LPS alone (LPS), or treated with LPS in the presence of increasing amounts of TIRAP peptide (LPS+TIRAP peptide). T cell proliferation was measured by incorporation of ^3H-thymidine into cells, expressed as cpm×10^3.
In view of the important role for TIRAP in mediating LPS-responsiveness in macrophages, the role of TIRAP in LPS-induced DC maturation was investigated. TIRAP is likely to be critical in these events because MyD88-deficient DCs retain the ability to upregulate costimulatory molecules in response to LPS stimulation (Kaisho 2001). To determine the effect of TIRAP on the expression of the costimulatory molecules B7.1 and B7.2, flow cytometry was performed on wild type and MyD88-/-DC. DCs were either unstimulated (shaded), stimulated with LPS (10 ng/ml) or CpG (10 μM) (black line), or pretreated with TIRAP peptide (10 μM) prior to stimulation with LPS or CpG (dashed line). […]

[6] = test system: IL-12; assay: IL-12 production by dendritic cells; type: cell-based, mice; details: DCs
Protocol: as §4
(§5) To determine the effects of the TIRAP peptide on cytokine production, DCs were treated with or without TIRAP peptide prior to stimulation with LPS or CpG (as described above), and the production of IL-12 and IL-6 was measured. Addition of TIRAP peptide inhibited production of IL-12 and IL-6 cytokines in response to stimulation with LPS, but not CpG (FIG. 6B).

[7] = test system: IL-6; assay: IL-6 production by dendritic cells; type: cell-based, mice; details: DCs
Protocol: as §4, §5

[8] = test system: 1H3.1 TCR transgenic T cells; assay: CD4 T cell proliferation stimulated by DCs, 3H-thymidine incorporation; type: cell-based; details: DCs from wild-type or MyD88-deficient mice, LPS, Eα peptide, 48 h culture
Protocol: as §4
Lastly, the effect of TIRAP peptide on T cell proliferation was evaluated. Stimulation of CD4 T cell proliferation by DCs treated with or without TIRAP peptide prior to stimulation with LPS was performed in the presence of varying concentrations of Eα peptide. DCs were fixed prior to incubation with 1H3.1 TCR transgenic T cells (specific for Eα peptide bound to I-A). Proliferation was measured by ^3H-thymidine incorporation for the last 24 h of a 48 h culture.

Substance: TIRAP peptide: synthetic peptide corresponding to the P125 region of mTIRAP linked to the C-terminus of a peptide derived from antennapedia (RQIKIWFQNRRMKWKKLQLRDAAPGGAIVS; TIRAP/Antennapedia fusion protein)
- inhibition of LPS-induced NF-κB activation ([1]; 1 hour pretreatment, LPS 10 ng/ml 5 hours, TIRAP peptide 50 μM): potently inhibited
- inhibition of CpG-induced NF-κB activation ([1]; CpG 10 μM 5 hours): did not inhibit
- LPS-induced IκB-α degradation ([2]; 1 hour pretreatment with 40 μM peptide, LPS 10 ng/ml): did not induce IκB-α degradation
- inhibition of CpG-induced IκB-α degradation ([2]; CpG): did not inhibit
- inhibition of PKR phosphorylation induced by CpG ([3]; CpG 10 μM): not CpG
- inhibition of PKR phosphorylation induced by LPS ([3]; LPS 10 ng/ml): inhibited
- inhibition of JNK phosphorylation induced by CpG ([4]; CpG): not CpG
- inhibition of JNK phosphorylation induced by LPS ([4]; LPS): inhibited
- CpG-induced DC maturation ([5]; DCs, CpG 10 μM): no effect
- LPS-induced upregulation of B7.1 and B7.2 molecules ([5]; wild-type and MyD88-deficient DCs, LPS 10 ng/ml): abolished
- production of IL-12 in response to CpG ([6]; peptide before CpG stimulation): not CpG
- production of IL-12 in response to LPS ([6]; peptide before LPS stimulation): inhibited
- production of IL-6 in response to CpG ([7]; peptide before CpG stimulation): not CpG
- production of IL-6 in response to LPS ([7]; peptide before LPS stimulation): inhibited
- T cell proliferation induced by peptide-treated DCs [8]: unable to induce T cell proliferation
